Where a name gives a salt, the structure may show the parent alone.
Assay: in vitro
Conditions: rat, gh3-tre-luc cells, AC50 (uM) modified / 1000

Structure (SMILES) | CC50 at 24 h
CCCCCCOc1ccc(O)cc1 [4-(Hexyloxy)phenol] | 25.3 µM
O=C1OC(=O)C2C3C=CC(C3)C12 (stereo not drawn) [2-Norbornene-5,6-dicarboxylic anhydride] | > 90 µM
C[Si](C)(C)Cl [Chlorotrimethylsilane] | > 90 µM
CCc1ccc(O)cc1 [4-Ethylphenol] | > 90 µM
CC1(C)O[C@@H]2C[C@H]3[C@@H]4CCC5=CC(=O)C=C[C@]5(C)[C@H]4[C@@H](O)C[C@]3(C)[C@]2(C(=O)CO)O1 [Desonide] | > 50 µM
NCCNC(=O)c1ccc(Cl)cn1 [Lazabemide hydrochloride] | > 50 µM
CCCCCOC(=O)Nc1nc(=O)n([C@@H]2O[C@H](C)[C@@H](O)[C@H]2O)cc1F [Capecitabine] | > 50 µM
Oc1ccccc1/C=N/Cc1ccccc1 [Norletimol] | > 50 µM
NCCNCCNCCNCCN [Tetraethylenepentamine] | > 90 µM
NC(Cc1ccc(Cl)cc1)C(=O)O (stereo not drawn) [Fenclonine] | > 50 µM
O=C(O)c1cc(C(=O)O)cc(S(=O)(=O)O)c1 [Sodium 5-sulfoisophthalate] | > 90 µM
CCc1ccc(C(=O)NN(C(=O)c2cc(C)cc(C)c2)C(C)(C)C)cc1 [Tebufenozide] | 2.75 µM
COC(C=C(C)CCC=C(C)C)OC [1,1-Dimethoxy-3,7-dimethylocta-2,6-diene] | > 90 µM
O=C1NCN(c2ccccc2)C12CCN(CCCC(c1ccc(F)cc1)c1ccc(F)cc1)CC2 [Fluspirilene] | 4.02 µM
CCCCOCCOCCOCCO [2-[2-(2-Butoxyethoxy)ethoxy]ethanol] | > 90 µM
O=c1nn[nH]c2ccccc12 [1,2,3-Benzotriazin-4(1H)-one] | > 90 µM
CCCCC/C=C/C/C=C/CCCCCCCC(=O)OCC [Ethyl linoleate] | > 50 µM
CCCCC(CC)(CO)CO [2-Butyl-2-ethyl-1,3-propanediol] | > 90 µM
Cc1cc(C)cc(C(=O)OC2C[C@H]3CC[C@@H](C2)N3C)c1 (stereo partly drawn) | 22.4 µM
O=C(O)CNCC(=O)O [Iminodiacetic acid] | > 5 µM
Nc1cnn([C@@H]2O[C@H](CO)[C@@H](O)[C@H]2O)c(=O)n1 [6-Azacytidine] | > 90 µM
CC1(C)[C@@H]2CC[C@@]1(C)[C@H](O)C2 [Isoborneol] | > 90 µM
CCN(CC)C(C)=O [Diethylacetamide] | > 100 µM

Structure (SMILES) | CC50 at 24 h
O=[N+]([O-])c1ccc(Oc2ccc([N+](=O)[O-])cc2)cc1 [1,1'-Oxybis(4-nitrobenzene)] | > 90 µM
CC1(C)[C@H](C(=O)O)N2C(=O)C[C@H]2S1(=O)=O [Sulbactam] | > 50 µM
CCOC(=O)Cn1c(=O)sc2cccc(Cl)c21 [Benazolin-ethyl] | > 90 µM
Cc1cccc(O)c1C [2,3-Dimethylphenol] | > 90 µM
NC(=O)N/N=C/c1ccc([N+](=O)[O-])o1 [Nitrofurazone] | > 90 µM
CC(C)(C)OC(=O)N1C[C@@H](F)C[C@H]1C(=O)O [1,2-Pyrrolidinedicarboxylicacid,4-fluoro-,1-(1,1-dimethylethyl)ester,(2S,4S)-] | > 90 µM
O=C(c1ccccc1)c1cc(Cl)ccc1O [(5-Chloro-2-hydroxyphenyl)phenylmethanone] | > 90 µM
CC(=O)CC(C)C [4-Methyl-2-pentanone] | > 90 µM
CO [Methanol] | > 90 µM
CCCCCCCCCCCCCCCCCBr [1-Bromoheptadecane] | > 20 µM
N=C(N)NC(=O)Cc1c(Cl)cccc1Cl [Guanfacine hydrochloride] | 31.7 µM
NC(=O)OC[C@@H]1[C@H](NC(=O)/C(=N\OCC(=O)O)c2csc(N)n2)C(=O)N1S(=O)(=O)O [Carumonam sodium] | > 50 µM
O=[N+]([O-])c1cc(C(F)(F)F)ccc1Cl [1-Chloro-2-nitro-4-(trifluoromethyl)benzene] | > 90 µM
CC1(C)O[C@@H]2[C@@H](CO[C@@]3(COS(N)(=O)=O)OC(C)(C)O[C@@H]23)O1 [Topiramate] | > 90 µM
O=C(O)Cc1ccccc1Oc1ccc(Cl)cc1Cl [Fenclofenac] | > 50 µM
C=CC(N)CCC(=O)O (stereo not drawn) [Vigabatrin] | > 50 µM
CCOC(=O)[C@@H](N)CS [Ethyl L-cysteinate hydrochloride] | > 50 µM
CO/N=C(\C(=O)N[C@@H]1C(=O)N2C(C(=O)O)=CCS[C@H]12)c1csc(N)n1 [Ceftizoxime sodium] | > 50 µM
COc1ccccc1O [2-Methoxyphenol] | > 90 µM
CCCC1O[C@@H]2C[C@H]3[C@@H]4CCC5=CC(=O)C=C[C@]5(C)[C@H]4[C@@H](O)C[C@]3(C)[C@]2(C(=O)CO)O1 (stereo partly drawn) [Budesonide] | > 90 µM
O=C1OC(=O)c2ccccc21 [Phthalic anhydride] | > 90 µM
CN1CCN(c2cc3c(cc2F)c(=O)c(C(=O)O)cn3-c2ccc(F)cc2)CC1 [Difloxacin hydrochloride] | > 50 µM
C=C1c2cccc(O)c2C(O)=C2C(=O)[C@]3(O)C(O)=C(C(N)=O)C(=O)[C@@H](N(C)C)[C@@H]3[C@@H](O)[C@H]12 [Methacycline hydrochloride] | > 20 µM

Structure (SMILES) | CC50 at 24 h
CCCCCCOC(=O)CCC [Hexyl butyrate] | > 90 µM
CC1CC(=O)O1 (stereo not drawn) [beta-Butyrolactone] | > 100 µM
C=CC(=O)NCOCCCC [N-(Butoxymethyl)acrylamide] | > 100 µM
CN(C)/N=N/c1[nH]cnc1C(N)=O [Dacarbazine] | > 90 µM
CC(C)CCCCCOC(=O)CCS [Isooctyl 3-mercaptopropionate] | > 90 µM
CCCO [1-Propanol] | > 90 µM
CC(=O)OCC(CCn1cnc2cnc(N)nc21)COC(C)=O [Famciclovir] | > 50 µM
CC(=O)[C@H]1CC[C@H]2[C@@H]3CC=C4C[C@@H](O)CC[C@]4(C)[C@H]3CC[C@]12C [Pregnenolone] | > 90 µM
CCN(CC)CCCC(C)Nc1cc(/C=C/c2ccccc2Cl)nc2cc(Cl)ccc12 (stereo not drawn) [Aminoquinol] | 20.1 µM
CCCCOC(C)=O [Butyl acetate] | > 90 µM
OCCOCC#CCOCCO [1,4-Bis(2-hydroxyethoxy)-2-butyne] | > 90 µM
CC(N)C(=O)OC(C)(C)Cc1ccc(Cl)cc1 (stereo not drawn) [Alaproclate] | 25.5 µM
N#CSc1ccc(N)c([N+](=O)[O-])c1 [2-Nitro-4-thiocyanoaniline] | 51.1 µM
O=C(C(Cl)Cl)N1CCOC12CCCCC2 [MON-4660] | 62.3 µM
CN(C)C(=O)C(c1ccccc1)c1ccccc1 [Diphenamid] | > 90 µM
CCCC[N+]1(C)CCCC1 [1-Butyl-1-methylpyrrolidinium hexafluorophosphate] | > 90 µM
C=CCCC [1-Pentene] | > 90 µM
CC1(C)O[C@@H]2C[C@H]3[C@@H]4CCC5=CC(=O)CC[C@]5(C)[C@@]4(F)[C@@H](O)C[C@]3(C)[C@]2(C(=O)CCl)O1 [Halcinonide] | > 20 µM
C[C@H]1O[C@@H](O[C@H]2[C@@H](O)C[C@H](O[C@H]3[C@@H](O)C[C@H](O[C@H]4CC[C@@]5(C)[C@H](CC[C@@H]6[C@@H]5C[C@@H](O)[C@]5(C)[C@@H](C7=CC(=O)OC7)CC[C@]65O)C4)O[C@@H]3C)O[C@@H]2C)C[C@H](O)[C@@H]1O [Digoxin] | > 90 µM
O=C(Nc1cccc2c(=O)cc(-c3nnn[nH]3)oc12)c1ccc(OCCCCc2ccccc2)cc1 [Pranlukast] | > 50 µM
O=C1CCCCO1 [Tetrahydro-2H-pyran-2-one] | > 90 µM
OCC1CC2CC1C1CCC(CO)C21 (stereo not drawn) [Tricyclodecanedimethanol] | > 90 µM
CC(=O)CC(=O)Nc1ccc2[nH]c(=O)[nH]c2c1 [3-Oxo-N-(2-oxo-2,3-dihydro-1H-benzimidazol-5-yl)butanamide] | > 90 µM

Same assay, conditions: rat, gh3-tre-luc cells, AC50 (uM) modified / 1000, Tox21_110001=Tox21_111308; viability, 1 nM T3 present, 24 h

Structure (SMILES) | CC50 at 24 h
c1ccc2c(c1)sc1ccccc12 [Dibenzothiophene] | > 50 µM

Same assay, conditions: rat, gh3-tre-luc cells, AC50 (uM) modified / 1000, Tox21_110001=Tox21_112896; viability, 1 nM T3 present, 24 h

Structure (SMILES) | CC50 at 24 h
CC(Cc1ccccc1)NCCn1cnc2c1c(=O)n(C)c(=O)n2C (stereo not drawn) [Fenethylline hydrochloride] | > 90 µM

Same assay, conditions: rat, gh3-tre-luc cells, AC50 (uM) modified / 1000, Tox21_110001=Tox21_200321; viability, 1 nM T3 present, 24 h

Structure (SMILES) | CC50 at 24 h
O=C(O)c1cc(Cl)ccc1Cl [2,5-Dichlorobenzoic acid] | > 90 µM

Same assay, conditions: rat, gh3-tre-luc cells, AC50 (uM) modified / 1000, Tox21_110001=Tox21_200580; viability, 1 nM T3 present, 24 h

Structure (SMILES) | CC50 at 24 h
CNC [Dimethylammonium nitrate] | > 90 µM

Same assay, conditions: rat, gh3-tre-luc cells, AC50 (uM) modified / 1000, Tox21_110001=Tox21_201153; viability, 1 nM T3 present, 24 h

Structure (SMILES) | CC50 at 24 h
C[C@H]1CCCC(=O)CCC/C=C/c2cc(O)cc(O)c2C(=O)O1 [Zearalenone] | 41.1 µM

Same assay, conditions: rat, gh3-tre-luc cells, AC50 (uM) modified / 1000, Tox21_110001=Tox21_201217; viability, 1 nM T3 present, 24 h

Structure (SMILES) | CC50 at 24 h
O=Cc1ccc(Cl)cc1Cl [2,4-Dichlorobenzaldehyde] | > 90 µM

Same assay, conditions: rat, gh3-tre-luc cells, AC50 (uM) modified / 1000, Tox21_110001=Tox21_202098; viability, 1 nM T3 present, 24 h

Structure (SMILES) | CC50 at 24 h
COc1nc(NC(C)C)nc(NC(C)C)n1 [Prometon] | > 90 µM

Same assay, conditions: rat, gh3-tre-luc cells, AC50 (uM) modified / 1000, Tox21_110001=Tox21_202253; viability, 1 nM T3 present, 24 h

Structure (SMILES) | CC50 at 24 h
c1ccc(N=NNc2ccccc2)cc1 [Diazoaminobenzene] | 69 µM

Same assay, conditions: rat, gh3-tre-luc cells, AC50 (uM) modified / 1000, Tox21_110001=Tox21_202864; viability, 1 nM T3 present, 24 h

Structure (SMILES) | CC50 at 24 h
CCCCCCCCCBr [n-Nonyl bromide] | > 90 µM

Same assay, conditions: rat, gh3-tre-luc cells, AC50 (uM) modified / 1000, Tox21_110001=Tox21_303249; viability, 1 nM T3 present, 24 h

Structure (SMILES) | CC50 at 24 h
c1ccc(N=NNc2ccccc2)cc1 [Diazoaminobenzene] | 47.9 µM

Same assay, conditions: rat, gh3-tre-luc cells, AC50 (uM) modified / 1000, Tox21_110001=Tox21_303415; viability, 1 nM T3 present, 24 h

Structure (SMILES) | CC50 at 24 h
c1ccc2c(c1)sc1ccccc12 [Dibenzothiophene] | > 90 µM

Same assay, conditions: rat, gh3-tre-luc cells, AC50 (uM) modified / 1000, Tox21_110001=Tox21_303510; viability, 1 nM T3 present, 24 h

Structure (SMILES) | CC50 at 24 h
C[C@H]1CCCC(=O)CCC/C=C/c2cc(O)cc(O)c2C(=O)O1 [Zearalenone] | 23.5 µM

— PMC6792352, “Limited Chemical Structural Diversity Found to Modulate Thyroid Hormone Receptor in the Tox21 Chemical Library” (Environmental Health Perspectives, 2019)
